Assays:
[1] = Second oil phase obtained by adding NaCl to the water phase (Example 4); format: physicochemical; conditions: after separating oil phases I and II
Description: Cross linked polystyrene was used as adsorbent material. The volume flux for loading the adsorbent was 300 ml/min.
The adsorbent was heated to 150 °C, the temperature of the applied water steam was 160 °C.
The water steam flux was 10 g/min and was applied for 100 min.
The oil and water phases were separated.
A second oil phase was separated and was collected.

[2] = Influence of the amount of NaCl on the distribution between oil phase and water phase (Example 5); format: physicochemical

| Loss in the water phase [1] | Distribution in [%] between oil phase and water phase after condensation: Oil phase ([2]; NaCl 0%) [%] | Distribution in [%] between oil phase and water phase after condensation: Water phase ([2]; NaCl 0%) [%] | Distribution in [%] between oil phase and water phase after condensation: Oil phase ([2]; NaCl 27.8 %) [%] | Distribution in [%] between oil phase and water phase after condensation: Water phase ([2]; NaCl 27.8 %) [%] | Distribution in [%] between oil phase and water phase after condensation: Oil phase ([2]; NaCl 41.67%) [%] | Distribution in [%] between oil phase and water phase after condensation: Water phase ([2]; NaCl 41.67%) [%] | Distribution in [%] between oil phase and water phase after condensation: Oil phase ([2]; NaCl 55.56 %) [%] | Distribution in [%] between oil phase and water phase after condensation: Water phase ([2]; NaCl 55.56 %) [%] | Distribution in [%] between oil phase and water phase after condensation: Oil phase ([2]; NaCl 69.44 %) [%] | Distribution in [%] between oil phase and water phase after condensation: Water phase ([2]; NaCl 69.44 %) [%] | Distribution in [%] between oil phase and water phase after condensation: Oil phase ([2]; NaCl 83.33 %) [%] | Distribution in [%] between oil phase and water phase after condensation: Water phase ([2]; NaCl 83.33 %) [%] | SMILES |
| --- | --- | --- | --- | --- | --- | --- | --- | --- | --- | --- | --- | --- | --- |
| 0,0% | 91.3 | 8.7 | 100 | 0 | 100 | 0 | 100 | 0 | 100 | 0 | 100 | 0 | CCCCCCCCO [octanol] |
| 0,0% | 93.4 | 6.6 | 99.4 | 0.6 | 100 | 0 | 100 | 0 | 100 | 0 | 100 | 0 | CCCCCCOC(C)=O [hexyl acetate] |
| 0,0% | 100 | 0 | 97.2 | 2.8 | 100 | 0 | 100 | 0 | 100 | 0 | 100 | 0 | CCC/C=C/COC(C)=O [trans-2-hexenyl acetate] |
| 0,0% | 100 | 0 | 100 | 0 | 100 | 0 | 100 | 0 | 100 | 0 | 100 | 0 | CCCCCC=O [hexanal] |

Second part, the compound before the results:

| SMILES | Loss in the water phase [1] | Distribution in [%] between oil phase and water phase after condensation: Oil phase ([2]; NaCl 0%) [%] | Distribution in [%] between oil phase and water phase after condensation: Water phase ([2]; NaCl 0%) [%] | Distribution in [%] between oil phase and water phase after condensation: Oil phase ([2]; NaCl 27.8 %) [%] | Distribution in [%] between oil phase and water phase after condensation: Water phase ([2]; NaCl 27.8 %) [%] | Distribution in [%] between oil phase and water phase after condensation: Oil phase ([2]; NaCl 41.67%) [%] | Distribution in [%] between oil phase and water phase after condensation: Water phase ([2]; NaCl 41.67%) [%] | Distribution in [%] between oil phase and water phase after condensation: Oil phase ([2]; NaCl 55.56 %) [%] | Distribution in [%] between oil phase and water phase after condensation: Water phase ([2]; NaCl 55.56 %) [%] | Distribution in [%] between oil phase and water phase after condensation: Oil phase ([2]; NaCl 69.44 %) [%] | Distribution in [%] between oil phase and water phase after condensation: Water phase ([2]; NaCl 69.44 %) [%] | Distribution in [%] between oil phase and water phase after condensation: Oil phase ([2]; NaCl 83.33 %) [%] | Distribution in [%] between oil phase and water phase after condensation: Water phase ([2]; NaCl 83.33 %) [%] |
| --- | --- | --- | --- | --- | --- | --- | --- | --- | --- | --- | --- | --- | --- |
| CC/C=C\CCO [cis-3-hexenol] | 10,8% | 30.6 | 69.4 | 62.8 | 37.2 | 73.3 | 26.7 | 80.5 | 19.5 | 85.6 | 14.4 | 89.2 | 10.8 |
| CC(=O)OCC(C)C [2-methylpropyl acetate] | 1,0% | 69.3 | 30.7 | 92.1 | 7.9 | 96.2 | 3.8 | 97.5 | 2.5 | 98.6 | 1.4 | 99 | 1 |
| CCCCOC(C)=O [butyl acetate] | 1,4% | 53.5 | 46.5 | 85.6 | 14.4 | 92.5 | 7.5 | 95 | 5 | 97.5 | 2.5 | 98.6 | 1.4 |
| CCCCCCCO [heptanol] | 0,0% | 76.2 | 23.8 | 100 | 0 | 100 | 0 | 100 | 0 | 100 | 0 | 100 | 0 |
| CCCC(CC=O)OCC (stereo not drawn) [3-ethoxy-hexanal] | 1,5% | 48.4 | 51.6 | 78.9 | 21.1 | 89 | 11 | 94.6 | 5.4 | 97.4 | 2.6 | 98.5 | 1.5 |

Source: patent EP3959993B1, “METHOD FOR SOLVENT FREE PRODUCTION OF AROMA CONCENTRATES” (Symrise AG, priority 2020, dated 2022)
